Assay results from patent publication US20160038439A1, “Use of 7-a-[9-(4,4,5,5,5-pentafluoropentylsulfinyl)nonyl]-estra-1,3,5(10)- triene-3,17B-diol and derivatives thereof” (XI'ANLIBANG PHARMACEUTICAL TECHNOLOGY CO., LTD., priority 2013, published 2016).
Marks after values point to notes of the source that are not given here.

What was measured:
TNF-α [1] = experiment: TNF-α level in serum of rats with arthritis (ELISA); assay type: in vivo, SD rats
Experimental: (§1) After inflamed model was successfully established in SD rats, the SD rats were randomly divided into model control group (12 rats), low, medium dose group (8 rats for each), and high dose group (12 rats) of test drug depending on body weight. Rats in the model control group were administered a blank fat emulsion injection (0.5 mL) by tail vein injection every other day for 7 days; rats in the low and medium dose group of test drug were administered a fat emulsion injection of a compound of Formula A (specifically including Compounds I-VI described hereafter) by tail vein injection every other day for 7 days; rats in the high dose group of test drug were administered a fat emulsion injection of a compound of Formula A by tail vein injection every other day for 14 days. 12 same models in the normal control group were also administered a blank fat emulsion injection. Indexes such as hindfoot joint score, hindfoot joint thickness measurement, TNF-α level in serum and hindfoot joint tissues, hindfoot joint pathological section and the like were used to evaluate efficacy of the drug.
(§2) Compound I used in the present invention was purchased from Xi′ an Libang Pharmaceutical Co., Ltd.; Compounds II-IV were synthesized by the following method. SD rats used in the present invention were purchased from Super-B&K Laboratory Animal Corp. Ltd.; chicken type II collagen was purchased from Sigma, Lot No. 87H5227; rat tumor necrosis factor-α [TNF-α] enzyme-linked immunoassay kit (ELISA) was purchased from Shanghai Biovol Biotech Co., Ltd., Lot No. BV-E12102201.
(§3) Chicken type II collagen was dissolved in 0.1 mol/L acetic acid at 4° C. while stirring so as to be thoroughly dissolved at a concentration of 2 mg/mL The resulting solution was put into a refrigerator at 4° C. overnight. Liquid paraffin and lanolin were mixed at a ratio of 2:1 (volume ratio), and the mixture was autoclaved to prepare an incomplete Freund's adjuvant (IFA). Bacillus Calmette Guerin (BCG) vaccine (60 mg) was inactivated at 80° C. for 1 hour and transferred to a mortar, into which was dropwise added IFA. After being uniformly grinded, the resulting mixture was pushed and sucked repeatedly by double-syringe to prepare a complete Freund's adjuvant (CFA), with the final concentration of BCG vaccine being 2 mg/mL. An equal amount of chicken type II collagen acid solution was mixed with CFA into a stable emulsion (containing 1 mg chicken type II collagen per milliliter).
(§4) 12 female SD rats were randomly selected from 192 female SD rats as normal control group. The remaining 180 rats was disinfected with iodine tincture. After being deiodinated with 75% ethanol, each of the rat was administered 150 μL collagen emulsion by intradermal injection at the base of the tail, and was administered 100 μL collagen emulsion by intradermal injection at the vola pedis of right hindfoot. Thus, totally 250 μL for each rat was administered. 7 days later, an equal amount of collagen emulsion was intraperitoneal injected as a secondary immune.
(§5) Animal grouping and administration: inflamed rats were divided into model control group, low, medium and high dose groups of test drug based on body weight.
(§6) Rats in each group were scored for the hindfoot joint and measured for the thickness of ankle joint before being inflamed. Normal rats were taken blood from orbital venous plexus. The serum of the blood was separated out and cryopreserved at −20° C. to detect cytokines. Rats were scored for joint after being inflamed for 3 days, and were measured for the thickness of ankle joint before administration (on the 19th day since being inflamed), on the 3rd day and 8th day after administration (on the […] since being inflamed). Rats in each group were taken blood from orbital venous plexus when inflammation was severe (on the 23rd day after being inflamed). The serum of the blood was separated out and cryopreserved at −20° C. […]

[2] = test system: chicken type II collagen-induced arthritis model in SD rats; experiment: Hindfoot joint score in chicken type II collagen-induced arthritis model in SD rats; assay type: in vivo; parameters: scale not given here; details: tail vein, every other day
Experimental: as §1, §3, §4, §5
(§7) Rats in each group were scored for the hindfoot joint and measured for the thickness of ankle joint before being inflamed. Normal rats were taken blood from orbital venous plexus. The serum of the blood was separated out and cryopreserved at −20° C. to detect cytokines. Rats were scored for joint after being inflamed for 3 days, and were measured for the thickness of ankle joint before administration (on the 19th day since being inflamed), on the 3rd day and 8th day after administration (on the […] since being inflamed). Rats in each group were taken blood from orbital venous plexus when inflammation was severe (on the 23rd day after being inflamed). The serum of the blood was separated out and cryopreserved at −20° C. 8 rats for each group were sacrificed on the 28th day after being inflamed and were taken blood from intraperitoneal vein. The serum of the blood was separated out and was subjected to serological detection (TNF-α). The rest of rats were sacrificed on the 35th day after being inflamed, and histology index detection was carried out

TNF-α [3] = experiment: TNF-α level in hindfoot ankle joint tissue of rats with arthritis; assay type: in vivo, SD rats
Experimental: as §1, §2, §3, §4, §5, §6

[4] = test system: chicken type II collagen-induced arthritis model in SD rats; experiment: Pathological examination score of hindfoot ankle joint of rats with arthritis; assay type: in vivo; details: high dose group (1.40-2.16 mg/kg per compound), every other day for 14 days, n=4
Experimental: as §1, §3
12 female SD rats were randomly selected from 192 female SD rats as normal control group. The remaining 180 rats was disinfected with iodine tincture. After being deiodinated with 75% ethanol, each of the rat was administered 150 μL collagen emulsion by intradermal injection at the base of the tail, and was administered 100 μL collagen emulsion by intradermal injection at the vola pedis of right hindfoot. […]
Rats in each group were scored for the hindfoot joint and measured for the thickness of ankle joint before being inflamed. […] Rats were scored for joint after being inflamed for 3 days, and were measured for the thickness of ankle joint before administration (on the 19th day since being inflamed), on the 3rd day and 8th day after administration (on the 20th day since being inflamed). […]

[5] = test system: chicken type II collagen-induced arthritis model in SD rats; experiment: Thickness of right hindfoot ankle joint by microcalliper, collagen-induced arthritis rats; assay type: in vivo
Experimental: as §1, §3, §4, §5, §7

[6] = high dose group, the 3rd day after administration
[7] = high dose group, the 8th day after administration
[8] = low dose group, the 3rd day after administration
[9] = low dose group, the 8th day after administration
[10] = medium dose group, the 3rd day after administration
[11] = medium dose group, the 8th day after administration
[12] = high dose group, before administration (baseline)
[13] = low dose group, before administration (baseline)
[14] = medium dose group, before administration (baseline)
[15] = left ankle joint, high dose group
[16] = left ankle joint, low dose group
[17] = left ankle joint, medium dose group
[18] = right ankle joint, high dose group
[19] = right ankle joint, low dose group
[20] = right ankle joint, medium dose group

Compound | TNF-α level in serum (mean ± SD) (TNF-α [1]; [6]) [pg/mL] | TNF-α level in serum (mean ± SD) (TNF-α [1]; [7]) [pg/mL] | TNF-α level in serum (mean ± SD) (TNF-α [1]; [8]) [pg/mL] | TNF-α level in serum (mean ± SD) (TNF-α [1]; [9]) [pg/mL] | TNF-α level in serum (mean ± SD) (TNF-α [1]; [10]) [pg/mL] | TNF-α level in serum (mean ± SD) (TNF-α [1]; [11]) [pg/mL] | Mean value of hindfoot joint score [2, 12] | Mean value of hindfoot joint score [2, 6] | Mean value of hindfoot joint score [2, 7] | Mean value of hindfoot joint score [2, 13] | Mean value of hindfoot joint score [2, 8] | Mean value of hindfoot joint score [2, 9] | Mean value of hindfoot joint score [2, 14] | Mean value of hindfoot joint score [2, 10] | TNF-α level in ankle (mean ± SD) (TNF-α [3]; [15]) [pg/mL] | TNF-α level in ankle (mean ± SD) (TNF-α [3]; [16]) [pg/mL] | TNF-α level in ankle (mean ± SD) (TNF-α [3]; [17]) [pg/mL] | TNF-α level in ankle (mean ± SD) (TNF-α [3]; [18]) [pg/mL] | TNF-α level in ankle (mean ± SD) (TNF-α [3]; [19]) [pg/mL] | TNF-α level in ankle (mean ± SD) (TNF-α [3]; [20]) [pg/mL] | other results
7-α-[9-(4,4,5,5,5-pentafluoropentylsulfinyl)nonyl]-estra-1,3,5(10)-triene-3-acetyl-17-(undec-2-enoyl) [Compound VI] | 28.27 ± 37.62 | 26.56 ± 18.06 | 47.22 ± 96.55 | 197.35 ± 231.02 | 13.08 ± 7.93 | 78.21 ± 88.90 | 5.3 | 4.7**^# | 5.5 | 4.6 | 5.4**^## | 4.9 | 4.8 | 4.6** | 12.05 ± 4.01 | 14.39 ± 3.52 | 13.98 ± 3.66 | 14.58 ± 2.79 | 15.31 ± 5.02 | 12.67 ± 5.23 | Mean value of hindfoot joint score [2, 11]: 5.5; Joint lesion score (mean ± SD) [4]: 1.88 ± 1.26
7-α-[9-(4,4,5,5,5-pentafluoropentylsulfinyl)nonyl]-estra-1,3,5(10)-triene-3-hydroxyl-17-(undec-2-enoyl) [Compound V] | 46.48 ± 101.05 | 12.35 ± 9.72 | 66.71 ± 121.06 | 123.73 ± 157.16 | 10.02 ± 14.59 | 23.44 ± 27.21 | 4.5 | 5.6^## | 4.8 | 4.6 | 5.1** | 5.9^## | 4.4 | 5.7^## | 12.76 ± 3.34 | 13.56 ± 5.28 | 14.25 ± 5.00 | 13.68 ± 4.44 | 12.71 ± 4.00 | 11.73 ± 4.20 | Mean value of hindfoot joint score [2, 11]: 4.4*; Thickness of ankle joint (mean ± SD) [5, 12]: 6.28 ± 0.44 mm; Thickness of ankle joint (mean ± SD) [5, 6]: 6.44 ± 0.60 mm; Thickness of ankle joint (mean ± SD) [5, 7]: 6.07 ± 0.41 mm; Thickness of ankle joint (mean ± SD) [5, 13]: 6.27 ± 0.36 mm; Thickness of ankle joint (mean ± SD) [5, 8]: 6.36 ± 0.64 mm; Thickness of ankle joint (mean ± SD) [5, 9]: 6.20 ± 0.52 mm; Thickness of ankle joint (mean ± SD) [5, 14]: 6.09 ± 0.45 mm; Thickness of ankle joint (mean ± SD) [5, 10]: 6.74 ± 0.44 mm; Thickness of ankle joint (mean ± SD) [5, 11]: 6.15 ± 0.37 mm; Joint lesion score (mean ± SD) [4]: 3.75 ± 2.06
C[C@]12CC[C@@H]3c4ccc(O)cc4C[C@@H](CCCCCCCCC[S+]([O-])CCCC(F)(F)C(F)(F)F)[C@H]3[C@@H]1CC[C@@H]2O (stereo partly drawn) [Compound I, 7-α-[9-(4,4,5,5,5-pentafluoropentylsulfinyl)nonyl]-estra-1,3,5(10)-triene-3,17β-diol, reference compound] | 13.48 ± 25.05 | 18.45 ± 12.72 | 50.15 ± 60.06 | 52.78 ± 67.16 | 31.55 ± 54.58 | 22.41 ± 25.25 |  |  |  |  |  |  |  |  | 8.66 ± 4.33 | 10.16 ± 5.82 | 9.57 ± 5.10 | 8.98 ± 7.44 | 10.71 ± 4.61 | 9.63 ± 3.02 | 
